Columns and labels:
[1] = test system: CHIKV (strain 181/25mKate); assay: microbe, parasite or virus in culture; type: cell-based; conditions: Chikungunya virus, NHDF, 72 h, read-out: titer redn, log
[2] = Cytotoxicity assay (CellTiter Glo) in NHDF cells; conditions: human, CC50, NHDF cells, maximum 40 μM
[3] = test system: NHDF cells; assay: Cytotoxicity assay (CellTiter Glo) in NHDF cells; conditions: NHDF cells, 72 h; maximum 40 μM; listed as racemic 1h

Compound	log reduction at 10 µM [1]	CC50 at 72 h [2] [µM]	CC50 [3]
COc1c(F)cc(-n2c([C@@H]3CCN3)nc3cc(N4CCN(C(C)C)CC4)c(Cl)cc3c2=O)cc1F [(S)-1f]	0	> 40	–
COc1c(F)cc(-n2c([C@@H]3CCCN(C)C3)nc3cc(N4CCN(C(C)C)CC4)c(Cl)cc3c2=O)cc1F [(R)-1y]	1.3	23.6	–
COc1c(F)cc(-n2c([C@@H]3CCCN3)nc3cc(N4CCN(C)CC4)c(Cl)cc3c2=O)cc1F [(S)-1c]	1	> 40	–
COc1c(F)cc(-n2c([C@H]3CCCNC3)nc3cc(N4CCN(C(C)C)CC4)c(Cl)cc3c2=O)cc1F [(S)-1g]	2.9	11.7	–
CC(C)N1CCN(c2cc3nc([C@@H]4CCCNC4)n(-c4ccc(F)cc4)c(=O)c3cc2Cl)CC1 [(R)-1u]	2.1	23.8	–
CC(C)N1CCN(c2cc3nc([C@@H]4CCCNC4)n(-c4ccccc4)c(=O)c3cc2Cl)CC1 [(R)-1s]	0.9	> 40	–
COc1c(F)cc(-n2c([C@@H]3CCCNC3)nc3ccc(Cl)cc3c2=O)cc1F [(R)-1ab]	0	> 40	–
COc1c(F)cc(-n2c([C@@H]3CCCN3)nc3cc(N4CCN(C(C)C)CC4)c(F)cc3c2=O)cc1F [(S)-1b]	0.64	> 40	–
COc1c(F)cc(-n2c(-c3cccnc3)nc3cc(N4CCN(C(C)C)CC4)c(Cl)cc3c2=O)cc1F [1ad]	0	> 40	–
CC(C)N1CCN(c2cc3nc([C@@H]4CCCNC4)n(C)c(=O)c3cc2Cl)CC1 [(R)-1r]	0.5	> 40	–
COc1c(F)cc(-n2c(C3CCCCN3)nc3cc(N4CCN(C(C)C)CC4)c(Cl)cc3c2=O)cc1F (racemic) [rac-1h]	1.3	> 40	without observed cytotoxicity
CC(C)N1CCN(c2cc3nc([C@H]4CCCNC4)n(-c4ccccc4)c(=O)c3cc2Cl)CC1 [(S)-1s]	1	> 40	–
COc1ccc(-n2c([C@H]3CCCN3)nc3c(C)cc([N+](=O)[O-])cc3c2=O)cc1 [BDGR-49, reference compound]	0	–	–
COc1c(F)cc(-n2c([C@@H]3CCCN(c4ccccc4)C3)nc3cc(N4CCN(C(C)C)CC4)c(Cl)cc3c2=O)cc1F [(R)-1aa]	0	> 40	–
COc1c(F)cc(-n2c([C@@H]3CCCNC3)nc3cc(N4CCC(N5CCN(C)CC5)CC4)c(Cl)cc3c2=O)cc1F [(R)-1p]	2.5	13.1	–
CC(C)N1CCN(c2cc3nc([C@H]4CCCNC4)n(-c4cccc(Cl)c4)c(=O)c3cc2Cl)CC1 [(S)-1w]	2.6	14.8	–
COc1c(F)cc(-n2c(C3CCNCC3)nc3cc(N4CCN(C(C)C)CC4)c(Cl)cc3c2=O)cc1F [1i]	0.95	29.1	–
COc1c(F)cc(-n2c([C@H]3CCN3)nc3cc(N4CCN(C(C)C)CC4)c(Cl)cc3c2=O)cc1F [(R)-1f]	0.1	> 40	–
COc1c(F)cc(-n2c([C@H]3CCCNC3)nc3cc(N4CCN(C)CC4)c(Cl)cc3c2=O)cc1F [(S)-1m]	1	24.8	–
COc1c(F)cc(-n2c([C@H]3CCCN3)nc3cc(N4CCN(C(C)C)CC4)c(F)cc3c2=O)cc1F [(R)-1b]	1.3	> 40	–
CC(C)N1CCN(c2cc3nc([C@H]4CCCNC4)n(C)c(=O)c3cc2Cl)CC1 [(S)-1r]	0.7	> 40	–
COc1c(F)cc(-n2c([C@H]3CCCNC3)nc3cc(N4CCN(C5CCN(C)CC5)CC4)c(Cl)cc3c2=O)cc1F [(S)-1l]	1.2	11.4	–
COc1c(F)cc(-n2c([C@@H]3CCCNC3)nc3cc(N4CCN(C5CCN(C)CC5)CC4)c(Cl)cc3c2=O)cc1F [(R)-1l]	2.8	11.6	–
COc1c(F)cc(-n2c([C@H]3CCCNC3)nc3cc(N4CCC(N5CCOCC5)CC4)c(Cl)cc3c2=O)cc1F [(S)-1o]	0.3	30.1	–
COc1c(F)cc(-n2c([C@H]3CCCN3)nc3cc(N4CCNCC4)c(Cl)cc3c2=O)cc1F [(R)-1e]	2.1	24.9	–
COc1c(F)cc(-n2c([C@H]3CCCN3)nc3cc(N4CCN(C)CC4)c(Cl)cc3c2=O)cc1F [(R)-1c]	0.5	> 40	–
COc1c(F)cc(-n2c([C@@H]3CCCN3)nc3cc(N4CCNCC4)c(Cl)cc3c2=O)cc1F [(S)-1e]	1.6	22.8	–

Compound	log reduction at 10 µM [1]	CC50 at 72 h [2] [µM]	CC50 [3]
COc1c(F)cc(-n2c([C@@H]3CCCNC3)nc3cc(N4CCN(C(C)(C)C)CC4)c(Cl)cc3c2=O)cc1F [(R)-1j]	1.1	17.1	–
COc1c(F)cc(-n2c([C@H]3CCCNC3)nc3cc(N4CCNCC4)c(Cl)cc3c2=O)cc1F [(S)-1n]	0.8	13.7	–
CC(C)N1CCN(c2cc3nc([C@@H]4CCCNC4)n(-c4ccc(Cl)cc4)c(=O)c3cc2Cl)CC1 [(R)-1v]	3.4	14.2	–
COc1c(F)cc(-n2c([C@H]3CCCNC3)nc3cc(N4CCN(C(C)(C)C)CC4)c(Cl)cc3c2=O)cc1F [(S)-1j]	~3	8.9	–
COc1ccc(-n2c([C@@H]3CCCNC3)nc3cc(N4CCN(C(C)C)CC4)c(Cl)cc3c2=O)cc1 [(R)-1t]	1.4	29.3	–
COc1c(F)cc(-n2c([C@H]3CCCN(C)C3)nc3cc(N4CCN(C(C)C)CC4)c(Cl)cc3c2=O)cc1F [(S)-1y]	1.1	29.1	–
COc1c(F)cc(-n2c([C@@H]3CCCN3)nc3cc(N4CCN(C)CC4)c(F)cc3c2=O)cc1F [(S)-1a]	0.3	> 40	–
COc1c(F)cc(-n2c([C@@H]3CCCNC3)nc3cc(N4CCN(C(C)C)CC4)c(Cl)cc3c2=O)cc1F [(R)-1g]	2.3	16.2	–
CC(C)N1CCN(c2cc3nc([C@H]4CCCCN4)n(-c4ccc(Cl)cc4)c(=O)c3cc2Cl)CC1 [(R)-1x]	5.2	12	–
COc1c(F)cc(-n2c([C@@H]3CCCNC3)nc3cc(N4CCNCC4)c(Cl)cc3c2=O)cc1F [(R)-1n]	0.7	16.5	–
COc1c(F)cc(-n2c([C@H]3CCCCN3C)nc3cc(N4CCN(C(C)C)CC4)c(Cl)cc3c2=O)cc1F [(R)-1z]	0.4	> 40	–
COc1c(F)cc(-n2c([C@@H]3CCCNC3)nc3cc(N4CCN(c5ccccc5)CC4)c(Cl)cc3c2=O)cc1F [(R)-1k]	> 4	11.3	–
COc1c(F)cc(-n2c([C@@H]3CCCCN3)nc3cc(N4CCN(C(C)C)CC4)c(Cl)cc3c2=O)cc1F [(S)-1h]	1.7	34.8	–
COc1c(F)cc(-n2c([C@@H]3CCCNC3)nc3cc(N4CCN(C)CC4)c(Cl)cc3c2=O)cc1F [(R)-1m]	2.2	23.3	–
CC(C)N1CCN(c2cc3nc([C@@H]4CCCNC4)n(-c4cccc(Cl)c4)c(=O)c3cc2Cl)CC1 [(R)-1w]	2.7	18	–
COc1c(F)cc(-n2c([C@@H]3CCCN3)nc3cc(N4CCN(C(C)C)CC4)c(Cl)cc3c2=O)cc1F [(S)-1d]	1.3	> 40	–
COc1c(F)cc(-n2c([C@H]3CCCN3)nc3cc(N4CCN(C(C)C)CC4)c(Cl)cc3c2=O)cc1F [(R)-1d]	2.3	19	–
CC(C)N1CCN(c2cc3nc([C@H]4CCCNC4)n(-c4ccc(Cl)cc4)c(=O)c3cc2Cl)CC1 [(S)-1v]	2	17.2	–
COc1c(F)cc(-n2c([C@@H]3CCCNC3)nc3cc(N(C)CCN(C)C)c(Cl)cc3c2=O)cc1F [(R)-1q]	0.6	26.6	–
COc1c(F)cc(-n2c([C@H]3CCCN3)nc3cc(N4CCN(C)CC4)c(F)cc3c2=O)cc1F [(R)-1a]	0.1	> 40	–
COc1c(F)cc(-n2c([C@@H]3CCCNC3)nc3cc(N4CCC(N5CCOCC5)CC4)c(Cl)cc3c2=O)cc1F [(R)-1o]	1.1	20.6	–
COc1c(F)cc(-n2c([C@@H]3CCCCN3C)nc3cc(N4CCN(C(C)C)CC4)c(Cl)cc3c2=O)cc1F [(S)-1z]	0.5	36.5	–
COc1c(F)cc(-n2c([C@H]3CCCNC3)nc3cc(N4CCC(N5CCN(C)CC5)CC4)c(Cl)cc3c2=O)cc1F [(S)-1p]	1.8	12.1	–
COc1c(F)cc(-n2c([C@H]3CCCNC3)nc3cc(N(C)CCN(C)C)c(Cl)cc3c2=O)cc1F [(S)-1q]	1.2	16.3	–
COc1c(F)cc(-n2c(-c3ccccn3)nc3cc(N4CCN(C(C)C)CC4)c(Cl)cc3c2=O)cc1F [1ac]	0	> 40	–
CC(C)N1CCN(c2cc3nc([C@@H]4CCCCN4)n(-c4ccc(Cl)cc4)c(=O)c3cc2Cl)CC1 [(S)-1x]	3.4	16.5	–

— PMC12621019, “Restructuring Antiviral Quinazolinone Frameworks to Derive and Optimize Inhibitors of Chikungunya Virus” (ACS Medicinal Chemistry Letters, 2025)
